Measured values published in patent US12582604B2, “Stable solid dispersion of a B-RAF kinase dimer inhibitor, methods of preparation, and uses therefor” (BEIGENE, LTD., priority 2019, dated 2026).
Values after ≈ are worked out from the molar mass of the structure shown. “Also recorded” adds a separate entry of the source.

Experiments:
[1] = Solubility measurement (shaking 200 rpm at 25° C., HPLC); assay type: physicochemical
[2] = test system: RAF family of serine/threonine kinases; conditions: especially against BRAF/CRAF dimers; cited from earlier work
[3] = Long-term and accelerated stability studies (impurities, optical purity, XRPD, water content); assay type: physicochemical; conditions: for Total impurities T0: initial
[4] = Hygroscopicity by dynamic vapor sorption (DVS); assay type: physicochemical; conditions: for Hygroscopicity (in words): DVS, 80% RH
[5] = Pharmacokinetic comparison of Forms A-H in rats (Example 14); assay type: in vivo; conditions: rat, plasma
[6] = as above; assay type: in vivo
Text: Pharmacokinetic Comparison of Form a, B, C, D, E, F, G and H in Rats
(§1) Powder of Form A with particle sizes of D90=62.4 μm after micronization. The material content (purity) was not less than 98.0%.
Powder of Form B with particle sizes of D90=69.9 μm, D10=3.5 um, […] after micronization. The material content (purity) was not less than 98.0%.
Powders of Forms C, D, E, F, G and H with particle sizes of D90<600 μm after micronization. The material content (purity) was not less than 98.0%.
Rats, male and female, were used in this study.
An appropriate amount of each substance was weighted and was dispersed in 0.5% sodium carboxymethyl cellulose. A suspension was prepared at the desired concentration of Compound 1 for each substance. All the doses and concentrations of Compound 1 were calculated with freebase in this study.
(§2) The dosing solutions were freshly prepared prior to dose administration. The actual body weights and actual volume injected were recorded accordingly. The rats were fasted overnight and were allowed to intake food four hours after dosing. Each suspension was administrated orally to rats at a dose ranged from 0.5 to 5 mg/kg. Blood samples (˜1.0 mL) were collected at pre-dose and at different times up to 36 hours post-dosing via cephalic vein plexus. Whole blood was processed by centrifugation and plasma samples were collected and kept at freezer prior to analysis. Plasma samples were processed by protein precipitation. Concentrations of Compound 1 in the plasma samples were determined using a validated liquid chromatography-tandem mass spectrometry (LC-MS/MS) method. The plasma concentration-time data were analyzed using a non-compartmental model using Pharsight WinNonlin.

[7] = Pharmacokinetic comparison of Form A and Form F in dogs (Example 15); assay type: in vivo, Beagle dogs; conditions: for half-life: read-out: T½ (converted)
Experimental: Pharmacokinetic Comparison of Form A and Form F in Dogs
as §1
Powder of Form F with particle sizes of D90<200 μm after micronization. The material content (purity) was not less than 98.0%.
Beagle dogs, male and female, were used in this study.
An appropriate amount of each substance was weighed and was disperse in 0.5% sodium carboxymethyl cellulose. A suspension was prepared at the desired concentration of Compound 1 for each substance. All the doses and concentrations of Compound 1 were calculated with freebase in this study.
as §2, with “dogs” for “rats”

[8] = Long-term and accelerated stability studies (impurities, optical purity, XRPD, water content); assay type: physicochemical
Experimental: Chiral purity and polymorph results had no changes when stored at 25° C./60% RH for up to 24 months.

[9] = both sexes, beagle, dog, plasma, 0.5 mg/kg, 0.5 mpk IV
[10] = both sexes, beagle, dog, plasma, 5 mg/kg, 5 mpk PO
[11] = 25° C./60% RH up to 24 months and 40° C./75% RH up to 6 months
[12] = both sexes, iv, 1 mg/kg, 1 mpk IV

For `O=C1CCc2c(Oc3ccc4c(c3)[C@H]3[C@H](NC(=O)Nc5cc(F)c(F)cc5F)[C@H]3O4)ccnc2N1` [Compound 1, 1-((1S,1aS,6bS)-5-((7-oxo-5,6,7,8-tetrahydro-1,8-naphthyridin-4-yl)oxy)-1a,6b-dihydro-1H-cyclopropa[b]benzofuran-1-yl)-3-(2,4,5-trifluorophenyl)urea], the “Solubility (in words)” value ([1]; crystalline or neat amorphous form, water, 0.1 HCl, buffer solutions of different pH) is given as “poor solubility”, the “Inhibitory activity (in words)” value [2] is given as “potent inhibitory activity” and the Chemical purity change ([3]; crystalline form, 25° C./60% RH up to 12 months) is given as “does not show any significant chemical purity change”. For the same compound, the Optical purity change ([3]; crystalline form, 25° C./60% RH up to 12 months and 40° C./75% RH up to 6 months) was “no optical purity changes”, the “Weight gain (water gain) by DVS” value ([4]; 80% relative humidity) was 4.96% and the “Hygroscopicity (in words)” value [4] was “moderately hygroscopic”. For the same compound, the bioavailability ([5]; po, 5 mpk, crystalline form, preliminary DMPK studies) was ~20%.

In the case of `O=C1CCc2c(Oc3ccc4c(c3)[C@H]3[C@H](NC(=O)Nc5cc(F)c(F)cc5F)[C@H]3O4)ccnc2N1` [Form B, 1-((1S,1aS,6bS)-5-((7-oxo-5,6,7,8-tetrahydro-1,8-naphthyridin-4-yl)oxy)-1a,6b-dihydro-1H-cyclopropa[b]benzofuran-1-yl)-3-(2,4,5-trifluorophenyl)urea], the AUC(0-t) ([6]; 5 mpk PO, 5 mg/kg) is reported as 13134 ng·h/mL, the T1/2 ([6]; 5 mpk PO, 5 mg/kg) is reported as 2.47 h and the “Cmax and AUC0-inf compared with the amorphous solid dispersions (in words)” value ([6]; PO) is reported as “lower”. The “Cmax, AUC0-inf and F(%) compared to crystalline Form A (in words)” value ([6]; PO) was “higher” and the “Time at which solid form is still stable by XRPD (no crystalline peaks)” value ([3]; 40° C./75% RH) was ≥ 14 days.

`O=C1CCc2c(Oc3ccc4c(c3)[C@H]3[C@H](NC(=O)Nc5cc(F)c(F)cc5F)[C@H]3O4)ccnc2N1` [Form A, 1-((1S,1aS,6bS)-5-((7-oxo-5,6,7,8-tetrahydro-1,8-naphthyridin-4-yl)oxy)-1a,6b-dihydro-1H-cyclopropa[b]benzofuran-1-yl)-3-(2,4,5-trifluorophenyl)urea] gave an F ([6]; 1 mpk IV (reference)) of 100%, an AUC(0-t) ([6]; 5 mpk PO, 5 mg/kg) of 5716 ng·h/mL and a half-life ([6]; both sexes, rat, plasma, po, 5 mg/kg, 5 mpk PO) of 176 min. It also gave an F ([7]; 0.5 mpk IV (reference)) of 100%, an F ([7]; 5 mpk PO) of 34% and an AUC(0-t) [7, 9] of 6870 ng·h/mL. For the same compound, the clearance [7, 9] was 1.22 mL/min/kg, the half-life [7, 9] was 660 min and the Vd ([7]; both sexes, beagle, dog, plasma, 0.5 mg/kg, 0.5 mpk IV, read-out: Vdss) was 0.97 L/kg. For the same compound, the AUC(0-t) [7, 10] was 23400 ng·h/mL, the Cmax [7, 10] was 1120 ng/mL and the half-life [7, 10] was 660 min. For the same compound, the solubility ([1]; 0.1N HCl, simulated gastric fluid) was 20 µg/mL (≈ 41.5 µM), the solubility ([1]; 5% HTAB, aqueous with cosolvent or surfactant or cyclodextrin) was 960 µg/mL (≈ 1990 µM) and the solubility ([1]; 5% Pluronic F68, aqueous with cosolvent or surfactant or cyclodextrin) was < 0.1 µg/mL. It also gave a solubility ([1]; 5% SLS, aqueous with cosolvent or surfactant or cyclodextrin) of 1000 µg/mL (≈ 2070 µM), a solubility ([1]; 20% hydroxypropyl-β-cyclodextrin (HP-β-CD), aqueous with cosolvent or surfactant or cyclodextrin) of 550 µg/mL (≈ 1140 µM) and a solubility ([1]; 20% sulfobutyl ether-β-cyclodextrin (SBE-β-CD), aqueous with cosolvent or surfactant or cyclodextrin) of 550 µg/mL (≈ 1140 µM). The solubility at 2 h ([1]; DMA, organic solvent or mixture) was > 372 mg/mL, the solubility at 2 h ([1]; DMSO, organic solvent or mixture) was > 95.4 mg/mL and the solubility ([1]; n-heptane, organic solvent or mixture) was < 0.1 µg/mL. For the same compound, the solubility ([1]; pH 1.2 buffer solution, pH 1.2, simulated gastric fluid) was 15 µg/mL (≈ 31.1 µM), the solubility ([1]; pH 4.5 buffer, pH 4.5, aqueous buffer) was < 0.1 µg/mL and the solubility ([1]; pH 6.8 buffer, pH 6.8, aqueous buffer) was < 0.1 µg/mL. For the same compound, the solubility ([1]; pH 7.4 buffer solution, pH 7.4, aqueous buffer) was < 0.1 µg/mL, the solubility ([1]; water) was < 0.1 µg/mL and the “Storage time without obvious decomposition” value [3] was “over 12 months”. For the same compound, the “Total impurities T0” value ([3]; 25° C./60% RH study) was 1.0%, the Chemical purity change [3, 11] was “no significant chemical purity change” and the “Crystalline form change by XRPD” value ([3]; 25° C./60% RH, 12 months) was “changed to the crystalline form; also recorded: from Form A to Form A*”. For the same compound, the “Total impurities T24” value ([3]; 25° C./60% RH, 24 months) was 1.0%, the “Time at which solid form is still stable by XRPD” value ([3]; 40° C./75% RH) was ≥ 6 months and the “Total impurities T0” value ([3]; 40° C./75% RH study) was 1.0%. For the same compound, the “Total impurities T6” value ([3]; 40° C./75% RH, 6 months) was 1.0%, the “Hygroscopicity (in words)” value [4] was “moderately hygroscopic” and the “Crystalline form after DVS” value ([4]; after dynamic vapor sorption) was “changed to the Crystalline Form A*”. For the same compound, the “Time at which solid form is still stable by XRPD” value ([8]; 25° C./60% RH) was ≥ 6 months, the Optical purity change [8, 11] was “no optical purity changes” and the clearance ([5]; both sexes, 1 mg/kg, 1 mpk IV) was 3.15 mL/min/kg. It also gave a Vd ([5]; both sexes, 1 mg/kg, 1 mpk IV, read-out: Vdss) of 1.15 L/kg, an AUC(0-t) [5, 12] of 5330 ng·h/mL and a half-life [5, 12] of 252 min.

For `O=C1CCc2c(Oc3ccc4c(c3)[C@H]3[C@H](NC(=O)N[C@@H]5[C@H]6Oc7ccc(Oc8ccnc9c8CCC(=O)N9)cc7[C@@H]56)[C@H]3O4)ccnc2N1` [Impurity-1], the “Solubility (in words)” value ([1]; water and other common recrystallization solvents) was “very low solubilities”.
